Data: ChEMBL document CHEMBL1275444, “Fitness trade-offs in blaTEM evolution” (2008)
Active and inactive are the calls of the source. The rule behind the calls is not given here.

Experiments:
Escherichia coli [1] = tested on: Escherichia coli
Description: Ratio of Kcat to Km for Escherichia coli Beta-Lactamase TEM-12

Escherichia coli [2] = experiment: Antibacterial activity against Escherichia coli TP1 harboring pBR322 carrying TEM-10 assessed as inhibition of bacterial growth at >64 ug/ml after 18 hrs; format: functional, organism-based
Escherichia coli [3] = experiment: Antibacterial activity against Escherichia coli TP1 harboring pBR322 carrying TEM-12 assessed as inhibition of bacterial growth at <=16 ug/ml after 18 hrs; format: functional, organism-based

## CC1(C)S[C@@H]2[C@H](NC(=O)[C@H](N)c3ccccc3)C(=O)N2[C@H]1C(=O)O
Escherichia coli [1]
  kcat/Km: 4.2 ×10⁷ /M/s

## CC(C)(O/N=C(\C(=O)N[C@@H]1C(=O)N2C(C(=O)[O-])=C(C[n+]3ccccc3)CS[C@H]12)c1csc(N)n1)C(=O)O
Escherichia coli [2]
  inhibition: Active
Escherichia coli [3]
  inhibition: inactive
